From patent US20240010726A1, “LFA-1 SIGNALLING MEDIATOR FOR USE IN CANCER THERAPY” (Universität Basel, priority 2020, published 2024)

Legend:
MC38-OVA tumor cells = experiment: Murine MC38-OVA tumor model, intratumoral MgCl2 vs NaCl in bilateral tumors; type: in vivo, mice; conditions: for Tumor growth: 3 mM MgCl2 intratumoral vs 3 mM NaCl in contralateral tumor, every third day
Description: FIG. 1: Intratumoral magnesium administration improves adaptive anti-tumor immunity. (a) Schematic of experimental design. B1/6 mice, either immunized with OVA or left untreated, were inoculated subcutaneously with MC38-OVA tumor cells bilaterally on the flanks. From day 7, injection of 3 mM NaCl solution was applied in left flank tumor, whereas 3 mM MgCl2 solution was injected in contralateral tumor. This regimen was repeated every third day for a total of 8 cycles. (b) Tumor growth curves in non-immunized mice (n=20) (left panel), and immunized mice (n=19) (right panel). (c) Tumor growth curves in ±CD8 depleted mice (n=6-17). Results were pooled from 2 independent experiments, with n=6-12 mice each. (d) Absolute numbers of tumor-infiltrating CD8^+ T cells. (e) Number of tumor-infiltrating CD8^+ T cells positive for Ki67 (left panel), Granzyme B (middle panel) and CD25 (right panel). (f) Cell number of tumor-infiltrating CD8^+ T cells expressing PD-1 and Tim3. (g) Schematic of experimental design. B1/6 mice, immunized with OVA, were inoculated subcutaneously with MC38-OVA tumor cells unilaterally on the flank. From day 5, intratumoral injections of either 3 mM NaCl or 3 mM MgCl2 were initiated, and repeated every third day for 8 cycles. Mice were additionally injected with 200 μg i.p. of isotype control (IgG2a) or anti-PD-1 Ab on day 9, 12, and 15. (h) Tumor growth curves (n=13-14) and (i) host survival (n=13-14). Results were pooled from 2 independent experiments (b, h, i). Unless stated otherwise, 6 to 12 weeks old female mice were used for experiments. In assays with pre-immunized mice, mice were immunized 19 days before tumor implantation by subcutaneous injection of 100 μg of OVA protein (Invivogen) and 50 μg of CpG-B ODN 1826 (Eurogentec), resuspended in 100 μL of PBS. For tumor implantation, mice were inoculated subcutaneously onto the flanks with 0.5×10^6 MC38-OVA cells, resuspended in 100 μL of PBS. In bilateral tumor experiments, mice received 50 μL intra-tumoral injections of either 3 mM NaCl or 3 mM MgCl2 (both diluted in ddH2O). Injections of NaCl solution was applied in left flank tumor, whereas MgCl2 solution was injected in contralateral tumor. I.t. injections were initiated once tumors were palpable, usually between day 5 and 10 after tumor injection. Injections were repeated every third day. Tumor size was quantified using a caliper and tumor volume was calculated using a rational ellipse formula (α2×β×π6, α being the shorter axis and β the longer axis). […] Tumor tissue was isolated from mice, weighed and minced using razor blades. Tissue was then digested using accutase (PAA), collagenase IV (Worthington), hyaluronidase (Sigma), and DNAse type IV (Sigma) for 60 min at 37° C. with constant shaking. The cell suspensions were filtered using a cell strainer (70 μm). Precision Counting beads (Biolegend) were added before staining to quantify the number of cells per gram of tumor. Single cell suspensions were blocked with rat anti-mouse FcγIII/II receptor (CD16/CD32) blocking antibodies (‘Fc-block’) and stained with live/dead cell-exclusion dye. Cells were then incubated with fluorophore-conjugated antibodies directed against cell surface antigens, washed and resuspended in FACS buffer (PBS+2% FBS). For intracellular/intranuclear antigens, cells stained with cell surface antibodies were fixed and permeabilized using Foxp3/transcription factor staining buffer (eBioscience) prior to incubation with antibodies directed against intracellular antigens. CD8 T cells are essential for antitumor immunity. To explore the role of Mg^2+ in the tumor microenvironment, and specifically its functional impact on T cell immunity, we examined the effect of intratumoral (i.t.) Mg^2+ administration in the MC38-OVA tumor model. Specifically, mice were either immunized against ovalbumin (OVA) or left untreated before subcutaneous implantation of OVA-expressing MC38 colorectal carcinoma cells bilaterally on the flanks. […]

T2 target cells = type: cell-based, human
PHA T cell blasts = experiment: CD69 expression of PHA T cell blasts at increasing plate-bound anti-CD3 mAb; type: cell-based, human; conditions: augmenting concentrations of plate-bound anti-CD3 mAb; ±Mg^2+
Description: FIG. 4: Magnesium regulates LFA-1 mediated T cell activation and cytotoxicity within physiologic range • (a) Metabolic flux analysis of human EM CD8 T cells upon supra-physiologic activation with anti-CD3 and anti-CD28 Ab, and additional injection of secondary, cross-linking anti-CD3/28 Ab, in medium containing 1.2 mM Mg^2+, 0 mM Mg^2+, or medium which was reconstituted to 1.2 mM Mg^2+ immediately prior to activation (0→1.2 mM Mg^2+). Pooled results from n=6 healthy donors from 3 independent experiments. (b) CD69 expression of PHA T cell blasts upon activation with indicated concentrations of plate-bound anti-CD3 mAb in ±Mg^2+ containing medium. (c) Caspase-3 activity in EL4 target cells after co-culture for 4 hours with murine WT and LFA-1^−/− CTLs in medium containing 1.2 mM Mg^2+ or 0 mM Mg^2+, in presence of PHA at the indicated concentrations. The effector to target cell ratio was 3:1. Pooled results, n=3-4, from 2 independent experiments. (d) Cytotoxicity assay using WT and LFA-1^−/− OT1 CTLs, co-cultured for 4 hours in medium containing 1.2 mM Mg^2+ or 0 mM Mg^2+ with luciferase-expressing EL4 target cells (pulsed with altered OVA peptides at 10^−6 M). Cytotoxicity was quantified after adding luciferin to medium and measuring luminescent signal intensity. […] Cytotoxicity was quantified after adding luciferin to medium and measuring luminescent signal intensity. […]

[Mg+2] [Mg^2+, Magnesium]
Tumor-infiltrating CD8^+ T cells expressing PD-1 and Tim3 (MC38-OVA tumor cells; Mg^2+ treated vs NaCl tumors): significantly more often (co-)expressed
Tumor-infiltrating CD8^+ T cells positive for CD25 (MC38-OVA tumor cells; Mg^2+ treated vs NaCl tumors): more
Tumor-infiltrating CD8^+ T cells positive for Granzyme B (MC38-OVA tumor cells; Mg^2+ treated vs NaCl tumors): more
Tumor-infiltrating CD8^+ T cells positive for Ki67 (MC38-OVA tumor cells; Mg^2+ treated vs NaCl tumors): more
Number of tumor-infiltrating CD8^+ T cells (MC38-OVA tumor cells; Mg^2+ treated vs NaCl tumors, flow cytometry): increased
Tumor growth (MC38-OVA tumor cells; OVA pre-immunized mice): significantly reduced tumor growth
Tumor growth (MC38-OVA tumor cells; non-immunized mice): comparable
Cytotoxicity of REP T cells (caspase-3 activity in T2 target cells) (T2 target cells): significantly increased
CD69 expression of PHA T cell blasts (PHA T cell blasts): less pronounced dependence
